What was measured:
Format in all cases: biochemical
zHDAC10 [1] = target: T1, zHDAC10 (Danio rerio, UniProt F1QCV2); experiment: LC–MS deacetylase inhibition assay with N8-acetylspermidine; Ki by Cheng-Prusoff
T1 construct: gene hdac10; full-length, residues 2–675
T1 sequence (F1QCV2 2-675): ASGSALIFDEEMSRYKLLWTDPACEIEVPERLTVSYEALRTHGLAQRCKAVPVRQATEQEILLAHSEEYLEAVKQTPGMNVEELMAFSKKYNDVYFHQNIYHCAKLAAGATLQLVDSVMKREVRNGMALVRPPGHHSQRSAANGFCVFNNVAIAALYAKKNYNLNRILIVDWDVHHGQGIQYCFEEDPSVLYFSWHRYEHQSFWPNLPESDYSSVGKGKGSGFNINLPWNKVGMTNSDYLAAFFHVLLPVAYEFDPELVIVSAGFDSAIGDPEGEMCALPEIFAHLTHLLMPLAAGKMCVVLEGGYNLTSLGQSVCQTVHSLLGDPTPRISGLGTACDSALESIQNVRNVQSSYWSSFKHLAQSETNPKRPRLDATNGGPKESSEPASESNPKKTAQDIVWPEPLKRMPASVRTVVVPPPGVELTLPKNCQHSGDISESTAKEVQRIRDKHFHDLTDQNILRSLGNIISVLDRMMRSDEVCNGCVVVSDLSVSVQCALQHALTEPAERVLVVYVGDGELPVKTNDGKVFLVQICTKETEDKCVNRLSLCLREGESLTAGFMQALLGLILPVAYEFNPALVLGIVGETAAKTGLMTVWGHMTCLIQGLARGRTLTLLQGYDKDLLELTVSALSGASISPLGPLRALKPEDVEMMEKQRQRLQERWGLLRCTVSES

zHDAC10 [2] = target: T1, zHDAC10; experiment: LC–MS steady-state kinetics
hHDAC10 [3] = target: T2, hHDAC10 (Homo sapiens, UniProt Q969S8); experiment: LC–MS steady-state kinetics
T2 construct: gene HDAC10; full-length, residues 2–669, MBP fusion
T2 sequence (Q969S8 2-669): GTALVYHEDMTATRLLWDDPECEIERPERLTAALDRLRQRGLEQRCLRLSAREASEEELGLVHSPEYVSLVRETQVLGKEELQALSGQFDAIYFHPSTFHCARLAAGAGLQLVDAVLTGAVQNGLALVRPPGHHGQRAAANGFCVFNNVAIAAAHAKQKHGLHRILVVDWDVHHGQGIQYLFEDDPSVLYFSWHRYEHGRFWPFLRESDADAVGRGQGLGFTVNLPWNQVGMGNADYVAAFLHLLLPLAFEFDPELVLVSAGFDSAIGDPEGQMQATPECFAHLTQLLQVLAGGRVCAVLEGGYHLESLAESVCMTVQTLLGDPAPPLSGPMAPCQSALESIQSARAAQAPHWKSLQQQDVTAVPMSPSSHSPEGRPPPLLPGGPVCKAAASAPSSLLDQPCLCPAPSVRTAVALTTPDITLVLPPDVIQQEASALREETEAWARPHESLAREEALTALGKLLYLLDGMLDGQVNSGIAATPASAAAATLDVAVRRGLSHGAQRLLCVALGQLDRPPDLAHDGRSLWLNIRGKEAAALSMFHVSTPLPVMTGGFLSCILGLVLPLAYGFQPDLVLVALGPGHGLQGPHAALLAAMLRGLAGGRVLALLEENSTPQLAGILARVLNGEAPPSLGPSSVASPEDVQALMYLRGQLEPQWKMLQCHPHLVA

hHDAC10 [4] = target: T2, hHDAC10; experiment: LC–MS steady-state kinetics (kcat/KM)
zHDAC10 [5] = target: T1, zHDAC10; experiment: LC–MS steady-state kinetics (kcat/KM)

SMILES	LC-MS steady-state kinetics (zHDAC10 [2])	LC-MS steady-state kinetics (hHDAC10 [3])	other results
NCCCNCCCCCC(=O)C(F)(F)F [AAT, 7-[(3-aminopropyl)amino]-1,1,1-trifluoroheptan-2-one]	–	–	Ki (zHDAC10 [1]): 0.7 ± 0.2 µM
CC(=O)NCCCCCN [AcCAD, acetylcadaverine]	substantial catalytic activity was also observed with acetylcadaverine and acetylputrescine	substantial catalytic activity was also observed with acetylcadaverine and acetylputrescine	–
CC(=O)NCCCCCCCCN [AcDAO, N-(8-aminooctyl)acetamide]	also observed with acetylcadaverine and acetylputrescine, as well as N-(8-aminooctyl)acetamide	–	–
CC(=O)NCCCCN [AcPUT, acetylputrescine]	substantial catalytic activity was also observed with acetylcadaverine and acetylputrescine	substantial catalytic activity was also observed with acetylcadaverine and acetylputrescine	–
CC(=O)NCCCCNCCCN [N^8-AcSPD, N^8-acetylspermidine]	–	–	LC-MS steady-state kinetics (kcat/KM) (hHDAC10 [4]): 2,900±200 M^−1 s^−1; LC-MS steady-state kinetics (kcat/KM) (zHDAC10 [5]): 4,600±300 M^−1 s^−1

Source: PMC5454378, “Histone deacetylase 10 structure and molecular function as a polyamine deacetylase” (Nature Communications, 2017)
